Data on three compounds can be found in PubChem BioAssay AID1259407 (Chemical Carcinogenesis Research Information System (CCRIS), 2018).

The structures appear in SMILES notation. Activity calls are given as the source filed them. No rule for the calls is given here.

The subject of this data set is CCRIS mutagenicity, Ames/micronucleus/aberration tests. Description: CCRIS mutagenicity studies.
Where [1] appears, read: Test System: AMES SALMONELLA TYPHIMURIUM, Strain/Indicator: TA97, Metabolic Activation: HAMSTER, LIVER, S-9, AROCLOR 1254 (10%), Method: PREINCUBATION
Where [2] appears, read: Test System: AMES SALMONELLA TYPHIMURIUM, Strain/Indicator: TA98, Metabolic Activation: HAMSTER, LIVER, S-9, AROCLOR 1254 (10%), Method: PREINCUBATION
Where [3] appears, read: Test System: AMES SALMONELLA TYPHIMURIUM, Strain/Indicator: TA98, Metabolic Activation: HAMSTER, LIVER, S-9, AROCLOR 1254 (30%), Method: PREINCUBATION
The mark [4] stands for this setting: Test System: AMES SALMONELLA TYPHIMURIUM, Strain/Indicator: TA98, Metabolic Activation: NONE, Method: PREINCUBATION
The mark [5] stands for this setting: Test System: AMES SALMONELLA TYPHIMURIUM, Strain/Indicator: TA98, Metabolic Activation: RAT, LIVER, S-9, AROCLOR 1254 (10%), Method: PREINCUBATION
Where [6] appears, read: Test System: AMES SALMONELLA TYPHIMURIUM, Strain/Indicator: TA100, Metabolic Activation: HAMSTER, LIVER, S-9, AROCLOR 1254 (10%), Method: PREINCUBATION
Where [7] appears, read: Test System: AMES SALMONELLA TYPHIMURIUM, Strain/Indicator: TA100, Metabolic Activation: HAMSTER, LIVER, S-9, AROCLOR 1254 (30%), Method: PREINCUBATION
Setting [8] is: Test System: AMES SALMONELLA TYPHIMURIUM, Strain/Indicator: TA100, Metabolic Activation: RAT, LIVER, S-9, AROCLOR 1254 (10%), Method: PREINCUBATION
The mark [9] stands for this setting: Test System: AMES SALMONELLA TYPHIMURIUM, Strain/Indicator: TA1535, Metabolic Activation: HAMSTER, LIVER, S-9, AROCLOR 1254 (10%), Method: PREINCUBATION
Setting [10] is: Test System: AMES SALMONELLA TYPHIMURIUM, Strain/Indicator: TA1535, Metabolic Activation: HAMSTER, LIVER, S-9, AROCLOR 1254 (30%), Method: PREINCUBATION
The mark [11] stands for this setting: Test System: AMES SALMONELLA TYPHIMURIUM, Strain/Indicator: TA1535, Metabolic Activation: NONE, Method: PREINCUBATION
The mark [12] stands for this setting: Test System: AMES SALMONELLA TYPHIMURIUM, Strain/Indicator: TA100, Metabolic Activation: NONE, Method: PREINCUBATION

For `CN(C)c1ccc(N(C)C)cc1`, the mutagenic call reads like this: (End Point: IN VITRO CHROMOSOMAL ABERRATIONS, Test System: CHINESE HAMSTER LUNG CELLS (CHL), Metabolic Activation: NONE) “active; positive (structural changes)”; (End Point: IN VITRO CHROMOSOMAL ABERRATIONS, Test System: CHINESE HAMSTER LUNG CELLS (CHL), Metabolic Activation: RAT, LIVER, S-9, KC-400) “active; positive (structural changes)”; (End Point: IN VITRO CHROMOSOMAL ABERRATIONS, Test System: CHINESE HAMSTER OVARY CELLS (CHO), Metabolic Activation: NONE) “active; positive at highest dose”; (End Point: IN VITRO CHROMOSOMAL ABERRATIONS, Test System: CHINESE HAMSTER OVARY CELLS (CHO), Metabolic Activation: RAT, LIVER, S-9, AROCLOR 1254) “active; positive (structural changes)”; under setting [1], “active; positive”; (Test System: AMES SALMONELLA TYPHIMURIUM, Strain/Indicator: TA97, Metabolic Activation: RAT, LIVER, S-9, AROCLOR 1254 (10%), Method: PREINCUBATION) “active; positive”. Besides, the mutagenic call runs as follows: (Test System: AMES SALMONELLA TYPHIMURIUM, Strain/Indicator: TA97, Metabolic Activation: RAT, LIVER, S-9, AROCLOR 1254 (30%), Method: PREINCUBATION) “inactive; negative”; under setting [2], “inactive; negative”; under setting [3], “active; positive”; under setting [4], “inactive; negative”; under setting [5], “inactive; negative”; (Test System: AMES SALMONELLA TYPHIMURIUM, Strain/Indicator: TA98, Metabolic Activation: RAT, LIVER, S-9, AROCLOR 1254 (30%), Method: PREINCUBATION) “inactive; negative”. Besides, the mutagenic call under setting [6] is “active; positive”; the mutagenic call under setting [7] is “active; positive”; the mutagenic call under setting [8] was “active; positive”; the mutagenic call (Test System: AMES SALMONELLA TYPHIMURIUM, Strain/Indicator: TA100, Metabolic Activation: RAT, LIVER, S-9, AROCLOR 1254 (30%), Method: PREINCUBATION) was “active; positive”; the mutagenic call under setting [9] was “inactive; negative”; the mutagenic call under setting [10] was “inactive; negative”. Besides, the mutagenic call under setting [11] was “inactive; negative”; the mutagenic call (Test System: AMES SALMONELLA TYPHIMURIUM, Strain/Indicator: TA1535, Metabolic Activation: RAT, LIVER, S-9, AROCLOR 1254 (10%), Method: PREINCUBATION) is “inactive; negative”; the mutagenic call (Test System: AMES SALMONELLA TYPHIMURIUM, Strain/Indicator: TA1535, Metabolic Activation: RAT, LIVER, S-9, AROCLOR 1254 (30%), Method: PREINCUBATION) is “inactive; negative”.

For the compound `O=C1c2ccccc2C(=O)c2c(O)cccc21`, the mutagenic call under setting [4] is “inactive; negative”; the mutagenic call under setting [5] is “inactive; negative”; the mutagenic call (Test System: AMES SALMONELLA TYPHIMURIUM, Strain/Indicator: TA98, Metabolic Activation: RAT, LIVER, S-9, AROCLOR 1254, Method: PREINCUBATION) was “inactive; negative”; the mutagenic call under setting [12] is “inactive; negative”; the mutagenic call under setting [8] is “inactive; negative”; the mutagenic call (Test System: AMES SALMONELLA TYPHIMURIUM, Strain/Indicator: TA100, Metabolic Activation: RAT, LIVER, S-9, AROCLOR 1254, Method: PREINCUBATION) is “inactive; negative”. Besides, the mutagenic call (Test System: AMES SALMONELLA TYPHIMURIUM, Strain/Indicator: TA102, Metabolic Activation: NONE, Method: PREINCUBATION) was “inactive; negative”; the mutagenic call (Test System: AMES SALMONELLA TYPHIMURIUM, Strain/Indicator: TA102, Metabolic Activation: RAT, LIVER, S-9, AROCLOR 1254 (10%), Method: PREINCUBATION) is “inactive; negative”; the mutagenic call (Test System: AMES SALMONELLA TYPHIMURIUM, Strain/Indicator: TA1537, Metabolic Activation: NONE, Method: PREINCUBATION) is “active; positive”; the mutagenic call (Test System: AMES SALMONELLA TYPHIMURIUM, Strain/Indicator: TA1537, Metabolic Activation: RAT, LIVER, S-9, AROCLOR 1254, Method: PREINCUBATION) was “active; positive”; the mutagenic call (Test System: UDS RODENT HEPATOCYTES, Strain/Indicator: THY INCORP, Metabolic Activation: NONE) was “active; positive”.

`CCOP(=O)(NC(C)C)Oc1ccc(SC)c(C)c1` (stereo not drawn): the mutagenic call reads like this: under setting [1], “inactive; negative”; (Test System: AMES SALMONELLA TYPHIMURIUM, Strain/Indicator: TA97, Metabolic Activation: HAMSTER, LIVER, S-9, AROCLOR 1254 (30%), Method: PREINCUBATION) “inactive; negative”; (Test System: AMES SALMONELLA TYPHIMURIUM, Strain/Indicator: TA97, Metabolic Activation: NONE, Method: PREINCUBATION) “inactive; negative”; (Test System: AMES SALMONELLA TYPHIMURIUM, Strain/Indicator: TA97, Metabolic Activation: RAT, LIVER, S-9, AROCLOR 1254 (10 OR 30%), Method: PREINCUBATION) “inactive; negative”; under setting [2], “inactive; negative”; under setting [3], “inactive; negative”. Also, the mutagenic call is “inactive; negative” under setting [4]; “inactive; negative” (Test System: AMES SALMONELLA TYPHIMURIUM, Strain/Indicator: TA98, Metabolic Activation: RAT, LIVER, S-9, AROCLOR 1254 (10 OR 30%), Method: PREINCUBATION); “inactive; negative” under setting [6]; “inactive; negative” under setting [7]; “inactive; negative” under setting [12]; “inactive; negative” (Test System: AMES SALMONELLA TYPHIMURIUM, Strain/Indicator: TA100, Metabolic Activation: RAT, LIVER, S-9, AROCLOR 1254 (10 OR 30%), Method: PREINCUBATION). Moreover, the mutagenic call reads like this: under setting [9], “inactive; negative”; under setting [10], “inactive; negative”; under setting [11], “inactive; negative”; (Test System: AMES SALMONELLA TYPHIMURIUM, Strain/Indicator: TA1535, Metabolic Activation: RAT, LIVER, S-9, AROCLOR 1254 (10 OR 30%), Method: PREINCUBATION) “inactive; negative”.
